We go through 9 compounds from PubChem BioAssay (NCI).

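Cultured in 96-well plates, cells were exposed to test compound for 48 hours across five concentrations. At the GI50, growth is halved. Definition used: TGI = concentration required for complete inhibition of growth.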

Among the test systems are HL-60(TB) leukemia; SW-620 colon; OVCAR-3 ovarian; NCI-H522 lung; RXF 393 renal; UACC-62 melanoma; 786-0 renal; SF-539 CNS; SN12C renal; LOX IMVI melanoma.
Common to all, as to assay: NCI-60 cell line screen, 48 h

Regarding `Cc1cccc(C)c1NC(=O)C(=O)Cc1nc2ccccc2s1`, the TGI in the assay on HL-60(TB) leukemia, in the assay with SW-620 colon, in the assay with OVCAR-3 ovarian, in the assay on NCI-H522 lung, with RXF 393 renal and in the assay with UACC-62 melanoma was > 100 µM in each case. Further, the TGI in the assay with 786-0 renal, in the assay on SF-539 CNS, with SN12C renal and in the assay with LOX IMVI melanoma was > 100 µM in each case.
Consider `O=C(CC1=Nc2nnc(CCCCCCCc3nnc4n3C(=O)C(CC(=O)c3ccc5ccccc5c3)=N4)n2C1=O)c1ccc2ccccc2c1`, for which the TGI in the assay on HL-60(TB) leukemia, in the assay with SW-620 colon, in the assay with OVCAR-3 ovarian, in the assay with NCI-H522 lung, with RXF 393 renal and in the assay with UACC-62 melanoma was > 100 µM each time. Besides, the TGI with 786-0 renal, with SF-539 CNS, in the assay on SN12C renal and in the assay on LOX IMVI melanoma was > 100 µM each time.
On to `CCOC(=O)Nc1ccc2nc(-c3cscn3)[nH]c2c1`, for which the GI50 in the assay on HL-60(TB) leukemia is 3.17 µM; in the assay with SW-620 colon, 2.95 µM; in the assay with OVCAR-3 ovarian, 3.79 µM; with NCI-H522 lung, 2.43 µM; in the assay with RXF 393 renal, 2.41 µM; with UACC-62 melanoma, 4.08 µM. Further, the GI50 is 9.16 µM with 786-0 renal, 3.32 µM in the assay on SF-539 CNS, 5.6 µM in the assay on SN12C renal and 5.18 µM in the assay on LOX IMVI melanoma. In addition, the TGI is > 100 µM in the assay on HL-60(TB) leukemia; > 100 µM with SW-620 colon; 23.4 µM in the assay on OVCAR-3 ovarian; 21 µM in the assay on NCI-H522 lung; 13.6 µM in the assay with RXF 393 renal; > 100 µM in the assay with UACC-62 melanoma. Also, the TGI with 786-0 renal was > 100 µM; with SF-539 CNS it was 20.6 µM; in the assay on SN12C renal it was > 100 µM; in the assay on LOX IMVI melanoma it was > 100 µM.
With `COC1(OC)C2(Cl)C3=CCCC=C3C1(Cl)C(Cl)=C2Cl`, the TGI in the assay on HL-60(TB) leukemia is 33.2 µM; in the assay with SW-620 colon, 36.9 µM; in the assay on OVCAR-3 ovarian, 43.8 µM; with NCI-H522 lung it was 33 µM; with RXF 393 renal, 47.8 µM; in the assay on UACC-62 melanoma, > 100 µM. Also, the TGI is > 100 µM with 786-0 renal, > 100 µM in the assay on SF-539 CNS, > 100 µM in the assay on SN12C renal and 30.2 µM with LOX IMVI melanoma.
For `Oc1ccc(Cl)cc1C=Nc1cnc2ccccc2c1`, the TGI is 34.9 µM in the assay on HL-60(TB) leukemia; > 100 µM with SW-620 colon; > 59.8 µM in the assay with OVCAR-3 ovarian; > 100 µM in the assay on NCI-H522 lung; > 100 µM in the assay with RXF 393 renal; > 100 µM in the assay with UACC-62 melanoma. For the same compound, the TGI with 786-0 renal is > 100 µM; with SF-539 CNS, 45.8 µM; in the assay with SN12C renal it was > 100 µM; with LOX IMVI melanoma it was > 100 µM.
With `CN1CCN(C2=NC(=O)/C(=C\c3ccc(N(C)C)cc3)S2)CC1`, the GI50 is 46 µM with HL-60(TB) leukemia; > 100 µM in the assay on SW-620 colon; > 100 µM with OVCAR-3 ovarian; > 100 µM in the assay on NCI-H522 lung; 45.4 µM in the assay on RXF 393 renal; 91.7 µM in the assay with UACC-62 melanoma. Further, the GI50 is > 100 µM in the assay with 786-0 renal, > 100 µM with SF-539 CNS, > 100 µM in the assay with SN12C renal and 75.1 µM in the assay with LOX IMVI melanoma. In addition, the TGI in the assay with HL-60(TB) leukemia, in the assay with SW-620 colon, in the assay with OVCAR-3 ovarian, with NCI-H522 lung, in the assay on RXF 393 renal and with UACC-62 melanoma was > 100 µM throughout. In addition, the TGI in the assay with 786-0 renal, in the assay on SF-539 CNS, in the assay on SN12C renal and in the assay on LOX IMVI melanoma was > 100 µM throughout.
Regarding `COc1cc2c(/C=C3\C(=O)Nc4ccccc43)c[nH]c2cc1C`, the GI50 is 0.494 µM with HL-60(TB) leukemia; < 0.0209 µM in the assay on SW-620 colon; 0.306 µM in the assay with OVCAR-3 ovarian; 0.833 µM in the assay with NCI-H522 lung; < 0.0231 µM with RXF 393 renal; 0.0775 µM with UACC-62 melanoma. Besides, the GI50 in the assay with 786-0 renal was < 0.0218 µM; in the assay with SF-539 CNS, < 0.0138 µM; with SN12C renal, 0.275 µM; with LOX IMVI melanoma it was 0.652 µM. Moreover, the TGI in the assay on HL-60(TB) leukemia was 4.45 µM; in the assay on SW-620 colon, 39.8 µM; with OVCAR-3 ovarian, 11.8 µM; in the assay with NCI-H522 lung, > 35.3 µM; with RXF 393 renal it was 0.71 µM; with UACC-62 melanoma, 7.43 µM. For the same compound, the TGI in the assay on 786-0 renal is 12.6 µM; with SF-539 CNS, < 0.0243 µM; in the assay on SN12C renal, 1.39 µM; with LOX IMVI melanoma it was 4.19 µM.
For the compound `CC1(C)CC(C)(C)c2cc(NC(=S)Nc3ccc([N+](=O)[O-])cc3)ccc2S1`, the GI50 in the assay with HL-60(TB) leukemia was 30.2 µM; with SW-620 colon it was 15.6 µM; in the assay on OVCAR-3 ovarian, 9.75 µM; with NCI-H522 lung it was 9.63 µM; in the assay with RXF 393 renal, 17.9 µM; in the assay on UACC-62 melanoma, 10.9 µM. Also, the GI50 with 786-0 renal was 17 µM; with SF-539 CNS, 10.8 µM; in the assay with SN12C renal it was 10.3 µM; with LOX IMVI melanoma, 12.4 µM. In addition, the TGI in the assay on HL-60(TB) leukemia was > 85.3 µM; in the assay on SW-620 colon it was > 80.2 µM; in the assay with OVCAR-3 ovarian, 31.2 µM; with NCI-H522 lung, 22.1 µM; with RXF 393 renal it was 51.8 µM; with UACC-62 melanoma, 25 µM. For the same compound, the TGI in the assay with 786-0 renal is > 55.5 µM; in the assay with SF-539 CNS it was 22.7 µM; in the assay on SN12C renal, 22.2 µM; in the assay on LOX IMVI melanoma, 31.9 µM.
Regarding `O=C1NC(=NCCc2ccc(Cl)cc2)S/C1=C\c1ccc2ncccc2c1`, the GI50 with HL-60(TB) leukemia is 8.69 µM; in the assay with SW-620 colon, 14.2 µM; in the assay on OVCAR-3 ovarian, > 25 µM; in the assay on NCI-H522 lung, 3.41 µM; with RXF 393 renal it was 11 µM; in the assay on UACC-62 melanoma, 17.4 µM. For the same compound, the GI50 in the assay on 786-0 renal was 14.3 µM; in the assay with SF-539 CNS, 15.9 µM; in the assay with SN12C renal, > 25 µM; in the assay with LOX IMVI melanoma, > 20.9 µM. Also, the TGI with HL-60(TB) leukemia was > 25 µM; with SW-620 colon it was > 25 µM; with OVCAR-3 ovarian, > 25 µM; in the assay on NCI-H522 lung, > 16 µM; in the assay on RXF 393 renal, > 25 µM; in the assay with UACC-62 melanoma it was > 25 µM. The TGI in the assay with 786-0 renal, with SF-539 CNS, in the assay with SN12C renal and in the assay with LOX IMVI melanoma was > 25 µM in each case.
